Assay results from patent publication US20200147069A1, “Compounds for The Reduction of The Deleterious Activity of Extended Nucleotide Repeat Containing Genes” (The Board of Trustees of the Leland Stanford Junior …, priority 2017, published 2020).

How the values were obtained:
[1] = biological target: T1, interaction between Supt4h and NGN (Homo sapiens, UniProt O00267+P63272); experiment: Split Gaussia luciferase complementation assay (M2-8 cells); assay type: cell-based; settings: for IC50: M2-8 cells, 24 hr, concentration at which signal was reduced to 50% of untreated
T1 construct: expressed in transfected cells
Protocol: i: pNBR-X1-Supt4-Gluc1 and pNEBR-X1-NGN-Gluc2 The HA-Supt4h and Flag-NGN fragments are amplified by PCR using the plasmid pHA-Supt4h-YC and pFlag-NGN-YN and sub-cloned individually into pcDNA3.1-Gluc1 and pcDNA3.1-Gluc2 (described in “A highly sensitive protein-protein interaction assay based on Gausssia luciferase” published at Nat Methods. 2006 December; 3(12):977-9. Epub 2006 Nov. 12). Then HA-Supt4h-Gluc1 and Flag-NGN-Gluc2 are amplified by PCR and inserted to pNEBR-X1-Hygro (New England BioLabs), which contain RheoSwitch responsive element under the control of RheoSwitch ligand.
PCR products containing the sequence from 5XRE to polyA in pNEBR-X1-NGN-G2 are inserted to pNEBR-X1-Supt4h-G1 at PciI site to generate Supt4h-G1 and NGN-G2 bidirectional under their own RheoSwitch responsive element and polyA in the same plasmid.
i: 293-R^1 is a cloned cell which is engineered to constitutively express RSL1 receptor/activator by transfecting HEK 293 cells with pNEBR-R^1 plasmid (New England BioLabs) and selected with Blasticidin.
ii: M2-8 is a cloned 293-R^1 cell which can inducibly express pNEBR-X1-Supt4h-G1-NGN-G2 by addition of RSL1. Two point mutations (M431 and M1101) are introduced to the GL1 and GL2 for better stability according to “A high-throughput cell-based Gaussia luciferase reporter assay for identifying modulators of fibulin-3 secretion” published on J Biomol Screen. 2013 July; 18(6):647-58. The cell line is selected by Hygromycin.
All the HEK-293 cells and derivative cell clones are maintained in DMEM containing 10% FBS plus corresponding antibiotics (250 μg/ml hygromycin B, 10 μg/ml blasticidin or both) at 37° C., 5% CO2. All the transfections are done by using lifpofectamine 2000 (Invitrogen) according to the manufacture's direction.
Plasmids harboring the Gluc1 and Gluc2 are co-transfected in a 1:1 ratio into 293-R^1 cells plated on tissue culture treated 24-well plates using Lipofectamine 2000 according to the manufacturer's instruction. For stable cell M2-8, the cells are plated into 96 well or 384 well white plate directly. 24 hours later, RheoSwitch ligand together with/without test compound is added to the cells for induction/drug treatment. After 24 hr, the cells are washed with PBS and the plate was put in −20° C. freezer for overnight. After taking out the plate from freezer, lysis buffer (30 mM Tris-HCl, pH 8.0, 5 mM NaCl, 0.1% Triton X-100) with 10 μg/ml native coelenterazine (Nanolight Technology) is immediately added to the cells. The cells are lysed at room temperature for one hour in dark. After shaking for about 1 min, 40 μl of cell lysate are transferred to a white 96 well plate. For M2-8 in white micro plate, no transfer is needed. Signal intensities (integrated 100 ms) were read on Tecan Infinite M200 or M1000.
The bioluminescence signal of Gaussia Luciferase from untreated M2-8 cells was set as 100% and the IC50 of the compound was defined as the compound concentration at which the signal intensity was reduced to 50%.
The split Gaussia luciferase complementation assay measures the interaction between Sup4h and NGN. NGN is the subunit of Supt5h that binds to Supt4h. […] Therefore, administration of Compound 1 results in decreased production of mutant proteins encoded by genes that include mutant nucleotide repeats.

mutant HTT protein = experiment: Mutant HTT activity assay in induced pluripotent stem cells (iPSC); assay type: cell-based, human; settings: iPSCs derived from a Huntington's disease patient, 24 hr, Western blot normalized by tubulin
Protocol: FIG. 1A-1B. iPSCs were treated with Compound 1 at different doses for 24 hr. The cells were collected and lysed for protein quantification. Equal amounts of protein were applied on SDS-PAGE gel for Western Blotting. Mutant HTT protein was recognized by polyQ antibody (MAB1574 from Millipore) while wild type HTT protein was blotted by anti-Huntingtin antibody (MAB2166 from Millipore) (FIG. 1A). Both proteins were scanned and quantified by Li-Cor Odyssey and normalized by tubulin (FIG. 1B).
Huntington disease patient iPSCs (ND36999 from Coriell Institute) were detached into single cells by Accutase (AT104 from Accutase) and plated on a 24-well plate coated with Matrigel (354277 from Corning). […] The protein concentrations were determined by BCA assay (Pierce, ThermoFisher). […] The protein level of mutant HTT, total HTT and tubulin were determined by immunoblotting with anti-poly Glutamine (MAB1574 from Millipore), anti-Huntingtin protein (MAB2166 from Millipore) and anti-alpha tubulin (AJ1034a from ABGENT). […] The band intensities were determined by Li-Cor Odyssey software.
Using the protocol reported above, iPSCs were treated with Compound 1 at various doses for 24 hr. The cells were collected and lysed for protein quantification. […] Both proteins were scanned and quantified by Li-Cor Odyssey and normalized by tubulin.

Gmr-Htt97Q/+ HD flies = experiment: Eye morphology (rough eye) analysis in Drosophila HD model; assay type: in vivo, Drosophila melanogaster; settings: 100 μM in media
Protocol: FIG. 2A. The morphology of compound eye was analyzed in fruit flies treated with or without Compound 1. […] To quantify the appearance of “rough eye” in Gmr-Htt97Q/+ treated with 10 and 100 μM of Compound 1, ten flies were randomly picked from each group and the number of flies with “rough eye” phenotype were determined under microscope. Compared to untreated group, the relative percentage of HD flies with “rough eye” phenotype in treated groups is shown (right panel). Data are presented as mean±SD (N=3; **, p<0.01 by student's t test).
(§1) The Drosophila melanogaster (fruit fly) HD models used in this set of experiments carry the coding sequence of human Htt exon1 with 97 CAG repeats to mimic mutant Httof Huntington's disease (HD). The Gmr::Htt97Q fly, expressing mutant Htt primarily in the neurons of Drosophila compound eyes, has a severe degeneration of photoreceptor neurons and the phenotypic trait ‘rough eye’. The elav::Htt97Q fly expresses the mutant protein specifically in neuroblasts and glial cells in the Drosophila embryonic CNS, resulting in a substantially negative impact on eclosion. All of the fly stocks and genetics crosses were maintained at 25° C. on standard cornmeal yeast agar media. […]

elav::Htt97Q HD flies = experiment: Eclosion rate analysis in Drosophila HD model; assay type: in vivo, Drosophila melanogaster
Protocol: FIG. 2B. HD fly (elav::Htt97Q) eclosion rate was measured in the presence or absence of Compound 1 treatment. 100 newly hatched flies, generated from crossing of male (elav-gal4/cyo) and female (UAS-Htt97Q/UAS-Htt97Q) flies, were collected at […]. The eclosion rate was determined by the number of HD-flies (elav::Htt97Q) vs. the number of non HD-flies (cyo::Htt97Q) (N=3; *, p<0.05 by student's t test).
as §1, with “eclosion.” for “eclosion. All of the fly stocks and genetics crosses were maintained at 25° C. on standard cornmeal yeast agar media.”
A group of 15 male flies (elav-gal4/cyo) and 15 virgin-female (UAS-Htt97Q/UAS-Htt97Q) flies were cultured in a vial that contains standard yeast agar media without or with Compound 1. […] The eclosion rate is determined by the number of HD-flies vs. the number of non HD-flies in a total of 100 collected flies in each experimental condition. […]

HD flies = experiment: Fly viability; assay type: in vivo, Drosophila melanogaster; settings: dose that alleviated phenotypic defects

SMILES	IC50 [1] [µM]	also measured
Brc1ccc2[nH]c3c(c2c1)CCCC3NCc1ccccc1 (stereo not drawn) [drawing 40]	< 1	–
CC(C)NC1CCCc2c1[nH]c1ccc(OC(C)C)cc21 (stereo not drawn)	> 1	–
CCN1CCC(NC2CCCc3c2[nH]c2ccccc32)CC1 (stereo not drawn)	> 1	–
Brc1ccc2[nH]c3c(c2c1)CCCC3NCc1ccccc1 (stereo not drawn) [Compound 1]	–	interaction between Sup4h and NGN ([1]; split Gaussia assay): interrupts the interaction between Sup4h and NGN; mutant HTT protein level (mutant HTT protein): decreases mutant HTT protein; incidence of rough eye phenotype (Gmr-Htt97Q/+ HD flies): 70% of the untreated group; eclosion rate (elav::Htt97Q HD flies): relatively low eclosion rate was reversed; fly viability (HD flies): did not affect fly viability
Brc1ccc2[nH]c3c(c2c1)CCCC3NC1CCCC1 (stereo not drawn)	< 1	–
CC(C)Oc1ccc2[nH]c3c(c2c1)CCCC3NCCc1ccccc1 (stereo not drawn)	> 1	–
CC(C)Oc1ccc2[nH]c3c(c2c1)CCCC3NC1CCCC1 (stereo not drawn)	> 1	–

More lines, main results first:

IC50 [1] [µM]	SMILES	also measured
< 1	Cc1ccc2[nH]c3c(c2c1)CCCC3NCc1ccccc1 (stereo not drawn)	–
< 1	Cc1ccc2[nH]c3c(c2c1)CCCC3NCc1ccc(F)cc1 (stereo not drawn)	–
< 1	O=C(NC1CCCc2c1[nH]c1ccc(Cl)cc21)c1ccccn1 (stereo not drawn)	–
< 1	CC(C)NC1CCCc2c1[nH]c1ccc(Br)cc21 (stereo not drawn)	–
